Data from publication PMC9312206, “Atto488-Agitoxin 2—A Fluorescent Ligand with Increased Selectivity for Kv1.3 Channel Binding Site” (Bioengineering, 2022).
Entries after “also recorded” stand apart in the source; their conditions may differ. Where two headings read alike, the source gives them in different places.

Key:
[1] = tested on: KcsA–Kv1.3 (Kv1.3 binding site); test: Competitive binding: displacement of A-AgTx2 from KcsA–Kv1.3 on E. coli spheroplasts; conditions: 1 h at 37 °C, pH 8.0; for displacement of A-AgTx2 from complexes with KcsA–Kv1.3 by peptide blockers (in words): tested AgTx2 0.4–50 nM, KTx1 0.04–2.5 nM, ChTx 10 nM, averaged over 3 independent experiments; for Kd: competition with A-AgTx2 10 nM, Kap = IC50/(1 + [L]/[Kd]), mean ± SEM, three independent measurements, read-out: apparent dissociation constant (Kap)
Protocol: (§1) E. coli spheroplasts expressing KcsA or chimeric KcsA–Kv1.x (x = 1, 3, 6) channels were prepared according to the previously developed protocol. Briefly, E. coli BL21 (DE3) cells (Novagen, Merck, Darmstadt, Germany), transformed either with the pET28a-KcsA, the pET28a-KcsA–Kv1.1, or the pET28a-KcsA–Kv1.3 plasmid, were cultivated in a minimal M9 medium at 37 °C up to OD560 = 0.8 optical units per cm (o.u./cm), induced with 50 μM isopropyl β-D-1-thiogalactopyranoside, and further grown at 37 °C for 20 h. The cells transformed with pET28a-KcsA–Kv1.6 were grown at 25 °C for 28 h after induction. To prepare the spheroplasts, cells were harvested by centrifugation (5000× g, 10 min, 4 °C), incubated in buffer A (10 mM Tris–HCl, pH 8.0, 0.5 M sucrose) containing lysozyme (20 μg/mL) for 7 min on ice, then diluted twofold with buffer B (10 mM Tris–HCl, pH 8.0, 0.3 mM ethylenediamine tetraacetic acid) and further incubated for 20 min. Finally, the spheroplasts (OD560 ≈ 0.5 o.u./cm) were stabilized by the addition of MgCl2 (10 mM) and stored at 4 °C.
(§2) All the experiments were performed in a buffer containing 50 mM Tris-HCl (pH 8.0), 4 mM KCl, 50 mM NaCl, 10 mM MgCl2, 0.3 mM EDTA, 250 mM sucrose, and 0.1% bovine serum albumin. In the binding experiments, the spheroplasts (1000 cells/μL) were incubated with different concentrations of A-AgTx2 (0.16–20 or 100 nM) or AgTx2-GFP (4 or 50 nM) for 1 h at 37 °C. In the competitive binding experiments, the spheroplasts were incubated with A-AgTx2 (10 nM) and with one of the following compounds for 1 h at 37 °C: AgTx2 (0.4–50 nM), KTx1 (0.04–2.5 nM), ChTx (10 nM), ScyTx (5 µM), tetraethylammonium (TEA, 10 mM).
(§3) After incubation with ligands, the spheroplasts were placed in a 12-well flexiPERM silicon chamber (Perbio, Aalst, Belgium) attached to a thin (0.15 mm) cover glass and were centrifuged at 200× g for 5 min to immobilize the spheroplasts to a cover glass. The microscopy studies were carried out with a laser scanning confocal microscope LSM 710 (Zeiss, Oberkochen, Germany) using the α Plan-Apochromat 100×/1.46 oil immersion objective. Fluorescence of A-AgTx2 and AgTx2-GFP was excited at the 488 nm wavelength and recorded in the 495–590 nm range, at a 0.25 μm lateral and ca. 1.5 μm axial resolution. Image J software (National Institutes of Health, Bethesda, MD, USA) was used to treat the images and define the fluorescence intensity of the ligand bound to each measured spheroplast and the average fluorescence intensity Ia of the bound fluorescent ligand (mean ± SEM, n = 130–230 cells per point).
The apparent dissociation constant (Kap) of non-labeled ligands (AgTx2, KTx1) was calculated using the data of competition binding experiments according to the procedure described elsewhere with the following equation: Kap = IC50/(1 + [L]/[Kd])(2) where [L] is a concentration of A-AgTx2 (10 nM), IC50 is the concentration of a non-labeled ligand that displaces 50% of A-AgTx2 from the complex with KcsA–Kv1.3. Kap was introduced instead of Kd to emphasize an indirect method (the competitive binding experiment) for its determination.
(§4) The Kd and Kap values from three independent measurements were averaged and presented as mean ± SEM.

KCa2.1 channel = conditions: ref [18]; cited from earlier work
KCa2.2 channel = conditions: ref [18]; cited from earlier work
KCa2.3 channel = conditions: ref [18]; cited from earlier work
Kv1.3 channel [2] = conditions: cited from earlier work
From the text: High-affinity and genetically ... || Interactions of A-AgTx2 with the Kv1.3 binding site were further characterized using known small organic molecule (TEA) and peptide blockers (ChTx, KTx1, AgTx2) of the Kv1.3 channel.

Kv1.6 channel = conditions: cited from earlier work
From the text: (§5) Differences between two labeled derivatives include the position of a label (carboxytetramehylrhodamine was located at the C-terminus of AgTx2 [11]), the number of charges, and the total charge at the labels. Atto488 bears two negatively and one positively charged groups (Figure 1C), while carboxytetramehylrhodamine bears one negative charge and one positive charge. It can be s ... || (+ 1 further places)

Kv1.1 channel = conditions: cited from earlier work
From the text: as §5

[3] = tested on: KcsA–Kv1.6 (Kv1.6 binding site); test: Direct binding of fluorescent ligand to hybrid KcsA–Kv1.6 on E. coli spheroplasts, confocal microscopy; conditions: A-AgTx2 100 nM, 1 h at 37 °C, pH 8.0
Protocol: (§6) E. coli spheroplasts expressing KcsA or chimeric KcsA–Kv1.x (x = 1, 3, 6) channels were prepared according to the previously developed protocol. Briefly, E. coli BL21 (DE3) cells (Novagen, Merck, Darmstadt, Germany), transformed either with the pET28a-KcsA, the pET28a-KcsA–Kv1.1, or the pET28a-KcsA–Kv1.3 plasmid, were cultivated in a minimal M9 medium at 37 °C up to OD560 = 0.8 optical units per cm (o.u./cm), induced with 50 μM isopropyl β-D-1-thiogalactopyranoside, and further grown at 37 °C for 20 h. The cells transformed with pET28a-KcsA–Kv1.6 were grown at 25 °C for 28 h after induction. […]
as §3, with “The microscopy studies were carried out with a laser scanning confocal microscope LSM 710 (Zeiss, Oberkochen, Germany) using the α Plan-Apochromat 100×/1.46 oil immersion objective.” left out

KcsA = test: Direct binding of fluorescent ligand to control spheroplasts expressing KcsA; conditions: A-AgTx2 100 nM
Protocol: as §6
as §3, with “The microscopy studies were carried out with a laser scanning confocal microscope LSM 710 (Zeiss, Oberkochen, Germany) using the α Plan-Apochromat 100×/1.46 oil immersion objective.” left out

[4] = tested on: spheroplasts prepared from non-transformed cells; test: Direct binding of fluorescent ligand to control spheroplasts from non-transformed cells (plasma membrane); design: species or system E. coli BL21 (DE3); conditions: A-AgTx2 100 nM
Protocol: as §6
as §3, with “The microscopy studies were carried out with a laser scanning confocal microscope LSM 710 (Zeiss, Oberkochen, Germany) using the α Plan-Apochromat 100×/1.46 oil immersion objective.” left out

[5] = tested on: KcsA–Kv1.3 (Kv1.3 binding site); test: Direct binding of fluorescent ligand to hybrid KcsA–Kv1.3 on E. coli spheroplasts, confocal microscopy
Protocol: as §1, with “°C. To obtain spheroplasts from non-transformed cells, E. coli BL21 (DE3) cells were subjected to similar growth, induction, and treatment procedures.” for “°C.”
as §2, §3
The dissociation constants (Kd) of complexes between A-AgTx2 and KcsA–Kv1.3 were defined by fitting the experimental dependencies of Ia onto the concentration L of A-AgTx2 with the following equation:Ia ([L]) = Ias [L]/(Kd + [L])(1) where Ias is the Ia value when the A-AgTx2 binding is saturated.
as §4

[6] = tested on: KcsA–Kv1.1 (Kv1.1 binding site); test: Direct binding of fluorescent ligand to hybrid KcsA–Kv1.1 on E. coli spheroplasts, confocal microscopy; conditions: A-AgTx2 100 nM, 1 h at 37 °C, pH 8.0
Protocol: as §6
as §3, with “The microscopy studies were carried out with a laser scanning confocal microscope LSM 710 (Zeiss, Oberkochen, Germany) using the α Plan-Apochromat 100×/1.46 oil immersion objective.” left out

KcsA–Kv1.3 = conditions: estimated previously; ref [15]; read-out: apparent dissociation constant, KcsA–Kv1.3-bearing spheroplasts and GFP-tagged AgTx2 ligand; cited from earlier work
Protocol: Since the bioengineering system based on KcsA–Kv1.3-bearing spheroplasts is suitable for the quantitative analysis of the affinity of unlabeled pore blockers by measuring the competitive binding of the fluorescent ligand and the compound under study, we tested A-AgTx2 in such an analysis (Figure 4C). […] The concentrations of AgTx2 and KTx1 displacing 50% of A-AgTx2, which were determined from the measured dependences, made it possible to calculate the apparent dis ...

Kv1.3 channel [7] = conditions: read-out: Kd, electrophysiological studies, cited from earlier work
Shaker K^+ channel = conditions: ref [1]; cited from earlier work
From the text: The toxin contains a triple-stranded antiparallel β-sheet with two outer strands—S1 (Val2-Cys8) and S2 (Arg24-Met29)—and the central strand S3 (Lys32—Thr ...

Compound: scyllatoxin (AFCNLRMCQLSCRSLGLLGKCIGDKCECVKH; UniProt P16341 1-31, looked up) [ScyTx]
- displacement of A-AgTx2 from complexes with KcsA–Kv1.3 by control peptide (in words) ([1]; A-AgTx2 10 nM, ScyTx 5 µM): did not disturb the complexes of A-AgTx2 with KcsA–Kv1.3
- block of KCa2.1 (in words) (KCa2.1 channel): blocks the KCa2.1, KCa2.2, and KCa2.3 channels
- block of KCa2.2 (in words) (KCa2.2 channel): blocks the KCa2.1, KCa2.2, and KCa2.3 channels
- block of KCa2.3 (in words) (KCa2.3 channel): blocks the KCa2.1, KCa2.2, and KCa2.3 channels
- interaction with Kv1.3 (in words) (Kv1.3 channel [2]; stated as known, ref [18]): does not interact with Kv1.3

Compound: charybdotoxin [ChTx]
- displacement of A-AgTx2 from complexes with KcsA–Kv1.3 by peptide blockers (in words) ([1]; A-AgTx2 10 nM): displaced A-AgTx2 from the complexes with KcsA–Kv1.3 at nanomolar concentrations

Compound: R-AgTx2: AgTx2 labeled with carboxytetramethylrhodamine at Lys38
- affinity for Kv1.6 binding site (in words) (Kv1.6 channel; ref [11],[12],[13]): nanomolar affinity
- affinity for Kv1.1 binding site (in words) (Kv1.1 channel; ref [11],[12],[13]): nanomolar affinity
- affinity for Kv1.3 binding site (in words) (Kv1.3 channel [2]; ref [11],[12],[13]): nanomolar affinity

Compound: Atto488-agitoxin 2 [A-AgTx2]
- binding of A-AgTx2 to KcsA–Kv1.6 / Kv1.6 binding site (in words) [3]: lose affinity for the Kv1.1 and Kv1.6 binding sites; also recorded: does not stain spheroplasts presenting KcsA–Kv1.1 or KcsA–Kv1.6; also recorded: inability of A-AgTx2 to interact with the Kv1.1 and Kv1.6 binding sites
- non-specific ligand binding to the KcsA channel scaffold (in words) (KcsA): very low
- non-specific ligand binding to plasma membrane (in words) [4]: very low
- affinity for the Kv1.3 binding site compared to the unlabeled AgTx2 (in words) [5]: decreased as compared to the unlabeled AgTx2
- binding of A-AgTx2 to spheroplasts expressing KcsA–Kv1.3 (in words) ([5]; A-AgTx2 20 nM, 1 h at 37 °C, pH 8.0): effectively binds to spheroplasts expressing KcsA–Kv1.3
- Kd ([5]; A-AgTx2 0.16–20 nM, 1 h at 37 °C, pH 8.0, 4 mM KCl, 50 mM NaCl, 0.1% BSA, mean ± SEM, n = 3, read-out: dissociation constant (Kd) of complexes with KcsA–Kv1.3): 3.9 ± 0.2 nM
- intensity of fluorescence detected from KcsA–Kv1.3-bearing spheroplasts relative to control spheroplasts (higher than) ([5]; A-AgTx2, control: spheroplasts expressing KcsA or not expressing heterologous channels, difference preserved with controls at fivefold higher A-AgTx2 concentration): fifty
- selectivity toward Kv1.3 as compared to the Kv1.1 and Kv1.6 binding sites (in words) ([5]; in contrast to non-modified AgTx2): considerably increased selectivity toward Kv1.3
- binding of A-AgTx2 to KcsA–Kv1.1 / Kv1.1 binding site (in words) [6]: lose affinity for the Kv1.1 and Kv1.6 binding sites; also recorded: does not stain spheroplasts presenting KcsA–Kv1.1 or KcsA–Kv1.6; also recorded: inability of A-AgTx2 to interact with the Kv1.1 and Kv1.6 binding sites

Compound: agitoxin 2 [AgTx2]
- displacement of A-AgTx2 from complexes with KcsA–Kv1.3 by peptide blockers (in words) ([1]; A-AgTx2 10 nM): displaced A-AgTx2 from the complexes with KcsA–Kv1.3 at nanomolar concentrations
- Kd [1]: 0.54 ± 0.11 nM
- Kd (KcsA–Kv1.3): 0.23 nM
- Kd (Kv1.3 channel [7]; ref [19]): 2 nM
- inhibition of Kv1.6 (in words) (Kv1.6 channel; mammalian channel, ref [1]): high-affinity inhibitor
- inhibition of Kv1.1 (in words) (Kv1.1 channel; mammalian channel, ref [1]): high-affinity inhibitor
- inhibition of Shaker K^+ channel (in words) (Shaker K^+ channel): high-affinity inhibitor
- inhibition of Kv1.3 (in words) (Kv1.3 channel [2]; mammalian channel, ref [1]): high-affinity inhibitor

Compound: kaliotoxin-1 [KTx1]
- displacement of A-AgTx2 from complexes with KcsA–Kv1.3 by peptide blockers (in words) ([1]; A-AgTx2 10 nM): displaced A-AgTx2 from the complexes with KcsA–Kv1.3 at nanomolar concentrations
- Kd [1]: 0.06 ± 0.02 nM
- Kd (KcsA–Kv1.3): 0.1 nM
- Kd (Kv1.3 channel [7]; ref [20]): 0.1 nM

Compound: CC[N+](CC)(CC)CC [TEA, tetraethylammonium]
- displacement of A-AgTx2 from complexes with KcsA–Kv1.3 by TEA (in words) ([1]; A-AgTx2 10 nM, TEA 10 mM): accomplished this at millimolar concentrations
